Measurements as given in patent US20240122934A1, “COMPOSITIONS AND METHODS OF TREATMENT FOR INHIBITING CAPILLARY TUBE REGRESSION” (University of South Florida, priority 2019, published 2024).
“Also recorded” adds a separate entry of the source.

Key:
Type in all cases: cell-based, human
[1] = tested on: EC tube networks; assay: 3D collagen EC tube regression assay; details: for EC tube regression in screen of growth factors and cytokines: 40 and 10 ng/ml, 48 hr EC tube networks; for effect of added HDAC6 inhibitor on pharmacologic rescue: 10 μM added to FISSB2, mediators 10 ng/ml, thrombin 1 μg/ml; for effect of added HDAC6 inhibitor on pharmacologic rescue / EC tube regression (pro-regressive activity): 24 hr; for EC tube regression (pro-regressive activity): factor added to established 48 hr EC tube networks
Experimental: (A) EC cultures with tube networks were established for 48 hr followed by the addition of indicated cytokines or thrombin (Thr) for 24 hr. IL-1β and IL-la were added at 1 ng/ml, TNFα at 3.16 ng/ml and thrombin at 1 μg/ml. Bars equal 100 or 200 μm. (B,C,D) EC tube networks were treated with the indicated cytokines and varying concentrations in dose-response analyses and in the presence or absence of thrombin added at 1 μg/ml. After 24 hr, cultures were fixed, stained and quantitated for EC lumen area per field. These curves are from a representative experiment using triplicate wells for each condition. The values (±SD) are derived from analyzed fields (n=15) where total lumen and tube area was measured. Asterisks indicate significance at p<0.05 compared to control and squares indicate significance at p<0.05 compared to the cytokine treatments alone.
ECs (passages 3-6) and pericytes (passages 3-12) were cultured as previously described^49,50. THP-1 cells were cultured in RPMI-1640-20% FCS. THP-1-T macrophages were differentiated for 72 hr. with 50 ng/ml of phorbol ester in RPMI-20% FCS, and then treated for 48 hr. in RPMI-2% FCS prior to adding TLR ligands. THP-1-VT macrophages were induced to differentiate for 72 hr. with 10^-7 M vitamin D3 (Calcitriol) in RPMI-20% FCS, followed by 48 hr. with phorbol ester in RPMI-2% FCS prior to adding TLR ligands.
(§1) ECs or ECs with pericytes were suspended in 3D collagen matrices and incubated at 37° C. in serum-free defined media as described^9,50,51. Recombinant factors or THP-1 conditioned media were added at the indicated doses to existing 48 or 72 hr. cultures with EC only or EC-pericyte tube networks, respectively. After 24 or 48 hr. for EC only or EC-pericyte tubes, respectively, cultures were fixed in 3% glutaraldehyde or 3% paraformaldehyde. EC tube areas were traced and quantitated as described. In some cases, neutralizing antibodies were added (10 μg/ml). For signaling experiments, lysates were prepared from control vs. regressing 3D cultures at different time points.

[2] = tested on: EC sprouts and tubes; assay: angiogenic sprouting assay (ECs invading from monolayer surface); details: for EC tube regression by signaling-mimicking drugs: Frax486 2.5 μM, vinblastine 100 nM, 24 hr
Experimental: (A) ECs were seeded onto a monolayer surface and then allowed to invade into the gels to form tubes over a 48 hr period. At this time, cultures were then treated with IL-1β or TNFα and in the absence or presence of FIST. Cultures were fixed after 24 hr, stained and photographed to visualize the monolayer surface and the underlying sprouts and tubes. (B) Cultures were established just like in A and then the Pak2 inhibitor, Frax486 (2.5 μM) or the microtubule depolymerizing agent, vinblastine (100 nM), were added to media in the presence or absence of FIST. Cultures were fixed after 24 hr, stained and photographed. Bar equals 200 μm.
Studies to define the factors and signals that promote endothelial cell (EC) lumen and tube formation, EC sprouting and EC-pericyte tube co-assembly have been performed under serum-free defined conditions so that the functional role of individual molecules that regulate these processes can be assessed. Disclosed herein, the factors that control capillary regression are defined. Capillary regression is a process that has been largely neglected despite the likelihood that it may present a fundamental pathogenic feature of major human diseases where capillary disassembly and regression are known to occur (i.e. hypertension, diabetes, ischemic disease in many tissues, neurodegenerative diseases, and malignant cancer). […] EC tube networks were allowed to form for 48 hr. (vasculogenesis type of assay) and then added these agents in dose-response experiments, showing that they potently induce EC tube regression (at low ng levels) (FIG. 1). Real-time movies were performed to visualize these pro-regressive activities. This experimental approach has utilized assays that mimic vasculogenesis or angiogenic sprouting and these factors induce regression equally well in both assay systems. […] These studies have been performed primarily in 3D collagen matrices, but the same result is also observed in 3D fibrin matrices.

[3] = tested on: EC tube networks; assay: Western blots of lysates from regressing 3D EC cultures (regression signaling signature); details: 24-hr. time course, compared to control EC tubes
Experimental: (A,B) ECs tube networks were treated with the indicated factors vs. control and at different time points, lysates were prepared from the 3D cultures. Western blots were performed using the different indicated antibodies. (C) Schematic illustrating findings that define a capillary regression signaling signature.
THP-T macrophages were treated with Pam3CSK4 (Pam) or LPS and conditioned medium was added at a 1:20 or 1:50 dilution, respectively, to EC tube networks. Control and IL10-treated cultures were compared with the conditioned medium treatments within the same experiment. At the indicated time points, lysates were obtained, and Western blots were performed with the indicated antibodies.
as §1

[4] = tested on: EC-pericyte tube networks; assay: EC-pericyte co-culture regression assay; details: added to 72 hr co-cultures
Experimental: (A) EC-pericyte (GFP-labeled) co-cultures were established and allowed to form for 72 hr and at this time, the combination of IL-1β (10 ng/ml), TNFα (10 ng/ml) and thrombin (11 μg/ml) were added in combination compared to control and real-time movies were performed. Light and fluorescent image overlays over time are shown in representative fields. Arrowheads indicate clusters of pericytes that accumulate together during regression responses in response to these three factors in combination. After 48 hr, fixed cultures were stained for CD31 to detect ECs and fluorescence image overlays were performed. (B) The same set up was established as in A, except that each individual factor and combination of factors were added. After 48 hr, the cultures were fixed and stained for CD31. Confocal images were obtained, and fluorescence overlay images are shown.
(A) EC-pericyte co-cultures were established for 72 hr, and then were left untreated or with IL-1β (10 ng/ml), TNFα (10 ng/ml), and thrombin (11 μg/ml) in combination. After 48 hr, cultures were fixed and stained with CD31, confocal microscopy and 3D reconstruction of the images allowed for an upright and side view. (B) EC-pericyte tube networks were treated with the indicated single and combined factors and after fixation, EC tube area was quantitated. […] The values (±SD) were obtained from analyzed fields (n=15) where total lumen and tube area was measured. Asterisks indicate increased significance at p<0.05 compared to control, the squares indicate decreased significance at p<0.05 relative to the single factor conditions and the triangle indicates significance at p<0.05 relative to the double factor conditions. (C) EC-pericyte tube networks were treated with indicated combinations of factors. After 48 hr, total GFP fluorescence per well was quantitated as a measure of pericyte number since they are GFP-labeled. […] Asterisks indicate significance at p<0.05 compared to control.
as §1

Molecule: IFNγ: interferon gamma
- EC tube regression in screen of growth factors and cytokines [1]: demonstrated significantly increased regression at both doses

Molecule: CC[C@]1(O)C[C@@H]2CN(CCc3c([nH]c4ccccc34)[C@@](C(=O)OC)(c3cc4c(cc3OC)N(C)[C@H]3[C@@](O)(C(=O)OC)[C@H](OC(C)=O)[C@]5(CC)C=CCN6CC[C@]43[C@@H]65)C2)C1 [vinblastine, reference compound]
- EC tube regression by signaling-mimicking drugs [2]: led to marked regression

Molecule: CCn1c(=O)c(-c2ccc(Cl)cc2Cl)cc2cnc(Nc3ccc(N4CCNCC4)c(F)c3)nc21 [Frax486, reference compound]
- EC tube regression by signaling-mimicking drugs [2]: led to marked regression

Molecule: IFNα
- EC tube regression in screen of growth factors and cytokines [1]: did not have any activity

Molecule: IL-13: cytokine
- EC tube regression in screen of growth factors and cytokines [1]: demonstrated significantly increased regression at both doses

Molecule: TGFβ1: growth factor
- EC tube regression in screen of growth factors and cytokines [1]: demonstrated significantly increased regression at both doses

Molecule: CN1CCc2c(c3ccccc3n2Cc2ccc(C(=O)NO)cc2)C1 [tubastatin, reference compound]
- effect of added HDAC6 inhibitor on pharmacologic rescue [1]: enhance the pharmacologic rescue of capillary regression induced by pro-inflammatory mediators

Molecule: C[C@@H](N)[C@H]1CC[C@H](C(=O)Nc2ccncc2)CC1 [Y27632, reference compound]
- effect of adding drug to FISTSB on rescue ([1]; FISTSBY vs FISTSB): did not enhance the ability of FISTSB to rescue capillary regression

Molecule: IL-1β: interleukin-1 beta, pro-inflammatory cytokine
- degeneration of sprouts and EC monolayer ([2]; angiogenic sprouting system): induce degeneration of the invading sprouts, but also the EC monolayer surface where the sprouts originated
- ICAM-1 and VCAM-1 levels [3]: Strong upregulation of ICAM-1 and VCAM-1
- phospho-Pak2, phospho-cofilin, acetylated tubulin, procaspase3 levels [3]: decreased levels of phospho-Pak2, phospho-cofilin, acetylated tubulin and procaspase3
- phospho-p38, phospho-JNK, phospho-MLC2 levels [3]: increased levels of phospho-p38, phospho-JNK, and phospho-MLC2
- EC tube regression in screen of growth factors and cytokines [1]: more potent pro-regressive factors than the other factors described herein
- EC tube regression (pro-regressive activity) [1]: directly cause capillary tube collapse and regression
- EC tube regression in EC-pericyte co-cultures [4]: marked tube regression in response to each factor individually and, also in combination
- pericyte numbers [4]: an increase in pericyte numbers

Molecule: O=C(CCCCCCC(=O)Nc1ccc([C@H]2O[C@@H](CSc3nc(-c4ccccc4)c(-c4ccccc4)o3)C[C@@H](c3ccc(CO)cc3)O2)cc1)NO [tubacin, reference compound]
- effect of added HDAC6 inhibitor on pharmacologic rescue [1]: enhance the pharmacologic rescue of capillary regression induced by pro-inflammatory mediators

Molecule: IL-6: cytokine co-induced in macrophages along with IL-1 and TNF
- EC tube regression (pro-regressive activity) [1]: does not have pro-regressive activity; also recorded: had no regressive effect

B1: IL-la: IL-1 isoform, pro-regressive cytokine (protein, UniProt P01583 113-271, looked up)
Interleukin-1 alpha: SAPFSFLSNVKYNFMRIIKYEFILNDALNQSIIRANDQYLTAAALHNLDEAVKFDMGAYKSSKDDAKITVILRISKTQLYVTAQDEDQPVLLKEMPEIPKTITGSETNLLFFWETHGTKNYFTSVAHPNLFIATKQDYWVCLAGGPPSITDFQILENQA
- EC tube regression (pro-regressive activity) [1]: directly cause capillary tube collapse and regression; also recorded: powerful ability to induce EC tube regression

B2: BMP-10: growth factor (protein, UniProt O95393 317-424, looked up)
Bone morphogenetic protein 10: NAKGNYCKRTPLYIDFKEIGWDSWIIAPPGYEAYECRGVCNYPLAEHLTPTKHAIIQALVHLKNSQKASKACCVPTKLEPISILYLDKGVVTYKFKYEGMAVSECGCR
- EC tube regression in screen of growth factors and cytokines [1]: demonstrated significantly increased regression at both doses

B3: IL-4: interleukin-4 (protein, UniProt P05112 25-153, looked up)
Interleukin-4: HKCDITLQEIIKTLNSLTEQKTLCTELTVTDIFAASKNTTEKETFCRAATVLRQFYSHHEKDTRCLGATAQQFHRHKQLIRFLKRLDRNLWGLAGLNSCPVKEANQSTLENFLERLKTIMREKYSKCSS
- EC tube regression in screen of growth factors and cytokines [1]: demonstrated significantly increased regression at both doses

B4: TGFβ2: growth factor (protein, UniProt P61812 303-414, looked up)
Transforming growth factor …: ALDAAYCFRNVQDNCCLRPLYIDFKRDLGWKWIHEPKGYNANFCAGACPYLWSSDTQHSRVLSLYNTINPEASASPCCVSQDLEPLTILYYIGKTPKIEQLSNMIVKSCKCS
- EC tube regression in screen of growth factors and cytokines [1]: demonstrated significantly increased regression at both doses

B5: Light: pro-regressive factor identified in the cytokine screen (protein, UniProt O43557 83-240, looked up)
Tumor necrosis factor ligand …: LIQERRSHEVNPAAHLTGANSSLTGSGGPLLWETQLGLAFLRGLSYHDGALVVTKAGYYYIYSKVQLGGVGCPLGLASTITHGLYKRTPRYPEELELLVSQQSPCGRATSSSRVWWDSSFLGGVVHLEAGEKVVVRVLDERLVRLRDGTRSYFGAFMV
- EC tube regression in screen of growth factors and cytokines [1]: demonstrated significantly increased regression at both doses

B6: BMP-9: growth factor (protein, UniProt Q9UK05 320-429, looked up)
Growth/differentiation factor …: SAGAGSHCQKTSLRVNFEDIGWDSWIIAPKEYEAYECKGGCFFPLADDVTPTKHAIVQTLVHLKFPTKVGKACCVPTKLSPISVLYKDDMGVPTLKYHYEGMSVAECGCR
- EC tube regression in screen of growth factors and cytokines [1]: demonstrated significantly increased regression at both doses
